# According to paper PMC11766867, “Novel 2-Thiazolylhydrazone with Druggable Properties for Antifungal Application” (Journal of Fungi, 2025):
# Where two headings read alike, the source gives them in different places.
# What was measured:
# chorioallantoic membrane = assay: HET-CAM assay (Hen's Egg Test on the Chorioallantoic Membrane), German protocol; assay type: in vivo, Gallus gallus domesticus; settings: RW3 at 100 µM; for Irritation Score: 300 µL on chorioallantoic membrane, 300 s, mean of six eggs; for Classification (irritation potential): HET-CAM, German protocol
# Experimental: Gallus gallus domesticus eggs (n = 3) at the eighth day of embryonic development were incubated at 37 ± 2 °C and 50% humidity until the test. On the tenth day, the solutions of RW3 (100 µM), 1% DMSO in saline (diluent), 0.1 mol/L NaOH (positive control), and saline solution (negative control) were placed on the chorioallantoic membrane. Following the application of 300 µL of each solution, according to the German protocol, the changes in the membrane were recorded for 300 s, indicating the time of onset of each observed phenomenon (hemorrhage, lysis, and coagulation) and using the following formula to calculate the Irritation Score (IS) (Equation (1)). Each experiment was repeated two times.IS = (301 − sH)/300 × 5 + (301 − sL)/300 × […] + (301 − sC)/300 × 9,(1) where H = hemorrhage, L—lysis, C = coagulation, and s = start second.
# Additionally, to assess the possibility of irritation caused by RW3, the Hen’s Egg Test on the Chorioallantoic Membrane (HET-CAM) was performed. The HET-CAM assay is an in vivo semiquantitative test to evaluate the anti-inflammatory potential and anti-irritant properties, as well as the ocular toxicity of compounds/formulations. The benefits of this test include its simplicity, rapid execution, ease of use, and relatively low cost.
# C. neoformans ATCC 24067 = assay: Broth microdilution MIC (CLSI M27-A3 with modifications); assay type: cell-based; settings: Cryptococcus neoformans, ATCC24067; 35 °C, 48 h, visual endpoint; read-out: Minimal Inhibitory Concentration (MIC) C. neoformans
# Experimental: (§1) Broth microdilution testing was conducted following the guidelines in the CLSI document M27-A3 (2008) with modifications. Briefly, the following yeast were used in the present study: C. albicans SC5314, C. tropicalis ATCC 750, Candidozyma (Candida) auris COLO 01, C. parapsilosis ATCC 22019, Pichia kudravzevii (C. krusei) ATCC 20298, C. gattii ATCC 24065, C. neoformans ATCC 24067, and S. brasiliensis (189). All fungus strains were stored at a temperature of −80 °C. Before conducting the experiments, the strains were cultivated on Sabouraud dextrose agar (HiMedia, Mumbai, India) at 35 °C to ensure their purity and viability. The yeast phase of S. brasiliensis was grown on brain–heart infusion agar (BHI; Difco, Detroit, MI, USA) with two successive passages of 7 days at 35 °C and CO2 5% [11]. The compounds were tested at concentrations of 0.125–250 µg/mL. For comparative antifungal controls, fluconazole (Sigma-Aldrich, St. Louis, MO, USA), itraconazole (Sigma-Aldrich, St. Louis, MO, USA), and caspofungine (Sigma-Aldrich, St. Louis, MO, USA) were included. The plates were incubated at 35 °C for 48 h for yeast and for 7 days for S. brasiliensis at 35 °C and CO2 5%. The tests were performed in triplicate. The endpoints were determined visually by comparison with the endpoints of the drug-free growth-control well. The value of the minimum inhibitory concentration (MIC) was defined as the lowest extract concentration at which the well was optically clear and was expressed in µg/mL.
# [1] = tested on: Pichia kudravzevii (C. krusei) ATCC 20298; assay: as above; assay type: cell-based; settings: ATCC20298, 35 °C, 48 h, visual endpoint, read-out: Minimal Inhibitory Concentration (MIC) P. kudravzevii
# Experimental: as §1
# C. albicans SC5314 = assay: as above; assay type: cell-based; settings: Candida albicans, 35 °C, 48 h, visual endpoint, read-out: Minimal Inhibitory Concentration (MIC) C. albicans
# Experimental: as §1
# [2] = tested on: C. parapsilosis ATCC 22019; assay: as above; assay type: cell-based; settings: Lodderomyces parapsilosis, ATCC22019; 35 °C, 48 h, visual endpoint; read-out: Minimal Inhibitory Concentration (MIC) C. parapsilosis
# Experimental: as §1
# C. gattii ATCC 24065 = assay: as above; assay type: cell-based; settings: Cryptococcus gattii, ATCC24065; 35 °C, 48 h, visual endpoint; read-out: Minimal Inhibitory Concentration (MIC) C. gattii
# Experimental: as §1
# C. tropicalis ATCC 750 = assay: as above; assay type: cell-based; settings: Candida tropicalis, ATCC750; 35 °C, 48 h, visual endpoint; read-out: Minimal Inhibitory Concentration (MIC) C. tropicalis
# Experimental: as §1
# [3] = tested on: Candidozyma (Candida) auris COLO 01; assay: organism not typed; assay type: cell-based; settings: 35 °C, 48 h, visual endpoint; for MIC: read-out: Minimal Inhibitory Concentration (MIC) C. auris
# Experimental: as §1
# Caco-2 cells [4] = assay: In vitro Caco-2 cytotoxicity (MTT, ISO 10993-5); assay type: cell-based, human; settings: 10, 25 and 50 µg/mL; non-cytotoxic if viability exceeds 70% (ISO 10993-5)
# Experimental: (§2) In vitro cytotoxicity assays were carried out following the protocol outlined in the ISO 10993-5 guideline (ISO, 2022). The human colon carcinoma cell line, Caco-2 cells (from ATCC), were cultured in 96-well plates for 24 h at a seeding density of 2 × 10^4 cells/well. The RW3 compound was dissolved in DMEM without phenol to prepare samples of 10, 25, and 50 µg/mL concentrations. Six replicates of each concentration for RW3 were assessed. This range of concentrations was chosen for reasons associated with the subsequent permeability tests. The experiments began by replacing the culture medium in each well with 100 µL of sample or control solutions, followed by a 4 h incubation at 37 °C in a CO2 incubator. Then, the solutions in each well were aspirated, and the cells were further incubated for 2 h with 30 µL of MTT solution (5 mg/mL, Sigma–Aldrich Corp., St. Louis, MO, USA, in DMEM and PBS buffer, 9:1 v/v). Next, formazan crystals were solubilized with 70 µL of isopropyl alcohol acidified with hydrochloric acid and quantified spectrophotometrically at 570 and 690 nm (Spectra Fluor plate reader, Tecan, Grödig, Austria). Cell viability was calculated based on the measured absorbance relative to the absorbance of the cells exposed to the negative controls (DMEM), which represented 100% cell viability, and for the positive control, we employed DMSO 50% in DMEM, which represented 0% cell viability.
# [5] = In vitro Caco-2 cytotoxicity (MTT, ISO 10993-5); assay type: cell-based, human; settings: human, Caco-2 cells, 4 h, MTT, read-out: cell viability
# Experimental: as §2
# [6] = Saturation shake-flask solubility method; assay type: physicochemical; settings: for solubility at 24 h: aqueous USP buffer, thermodynamic from solid, n = 3, read-out: Average Solubility mg/mL (±SD)
# Experimental: The equilibrium solubility of RW3 samples was assessed using the shake-flask method. The samples were dispersed in buffers described in the United States Pharmacopeia at pH values of 2.0, 4.5, and 6.8. For each reported solubility result, three independent shake-flask experiments were carried out in parallel. For each experiment, the solid sample was added carefully using a spatula to 2 mL of the aqueous buffer in a glass vial, while stirring, until a heterogeneous system (solid sample and liquid) was obtained. The solution containing solid excess of the sample was then capped, and stirred at 37 °C, 100 rpm, for 24 h in orbital shaker (Tecnal, Campinas, Brazil). An aliquot of 1 mL of the suspension was centrifuged, and the supernatant was then collected and filtered through a 0.2 µm PVDF filter. The resulting solution was then diluted 200× in the mobile phase, and the concentration of the sample in each aliquot was measured by the HPLC method. The RW3 concentrations were determined by injections of 10 µL of the samples via HPLC, using a Waters Alliance system (New Castle, DE, USA). Chromatographic separations were obtained using a PhenoSphere-NEXT® 5 µm C18 column (150 mm; 4,6 mm; Phenomenex®, Torrance, CA, USA) at 40° C. The mobile phase (1 mL/min) was composed of phosphate buffer 20 mM pH 4.0 and acetonitrile (50:50 v/v). The wavelength was set at 308 nm. The HPLC method employed was evaluated for linearity, precision, accuracy, and selectivity.
# The determination of the solubility under physiological conditions, particularly considering the different pH levels throughout the gastrointestinal tract, is one of the most important biopharmaceutical parameters that must be generated during the early stages of developing a new drug for oral administration. In this study, the solubility determination of RW3 was carried out using the miniaturized shake flask test, as only a small amount of the compound under investigation was available. In the literature, there are publications that have successfully employed the miniaturized test.
# S. brasiliensis (189) = assay: Broth microdilution MIC (CLSI M27-A3 with modifications), yeast phase; assay type: cell-based; settings: Sporothrix brasiliensis, 168 h, 7 days at 35 °C and CO2 5%, read-out: Minimal Inhibitory Concentration (MIC) S. brasiliensis
# Experimental: as §1, with “The value of the minimum inhibitory concentration (MIC) was defined as the lowest extract concentration at which the well was optically clear and was expressed in µg/mL.” left out
# Caco-2 cells [7] = assay: In vitro Caco-2 permeability assay; assay type: in vitro ADME, human; settings: high permeability: Papp > 10 × 10^−6 cm/s
# Experimental: (§3) The Caco-2 cells (from ATCC) were cultured in 12-well Transwell® (Corning Incorporated, New York, NY, USA) insert filters for 21 days at a seeding density of 5 × 10^4 cells/cm^2 to achieve confluence and differentiation. The integrity of the monolayer was examined by measuring the transepithelial electrical resistance (TEER) with an epithelial voltammeter Millicell-ERS (Merck SA—German, Darmstadt, Germany). Only cell monolayers with a TEER above […] were used for the transport assays.
# (§4) Transport experiments were conducted by adding 10 µg/mL RW3 in HBSS buffer at pH 6.8 to the apical compartments of the Transwell® plates (Corning, Corning, NY, USA), while the basolateral buffer was maintained at pH 7.4. The plates were agitated in an orbital shaker at 37 °C (100 rpm). Samples (100 µL) were collected from both the basolateral and apical sides at 30, 60, 90, 120, and 180 min. The apparent permeability coefficients (Papp, cm/s) were calculated using the Equation (2):Papp = […](2) where VR is the volume of the receiver compartment (basolateral or apical), DQ/Dt is the linear appearance rate of the compound on the receiver chamber (in ng/cm^3/s), A is the membrane surface area (cm^2), and C0 is the initial concentration in the donor compartment (ng/cm^3). This calculation requires that the sink conditions are fulfilled; therefore, only receiver concentrations below 10% of the donor concentration were employed in the calculations.
# [8] = In vitro Caco-2 permeability assay; assay type: in vitro ADME, human; settings: human, Caco-2
# Experimental: as §3, §4
SMILES,Irritation Score (chorioallantoic membrane),Classification (irritation potential) (chorioallantoic membrane),MIC (C. neoformans ATCC 24067),MIC [1],MIC (C. albicans SC5314),MIC [2],MIC (C. gattii ATCC 24065),MIC (C. tropicalis ATCC 750),MIC [3],MIC (S. brasiliensis (189)),other results
"[Na+].[OH-] [0.1 M NaOH, NaOH, reference compound]",12.00,Severe irritant,,,,,,,,,
"OC(Cn1cncn1)(Cn1cncn1)c1ccc(F)cc1F [Fluconazole, fluconazole, reference compound]",,,2 µg/mL,32 µg/mL,0.5 µg/mL,1 µg/mL,2 µg/mL,0.25 µg/mL,64 µg/mL,,
"CCOC(=O)Cc1csc(N/N=C(\C)C(=O)O)n1 [RW3, (E)-2-(2-(4-(2-Ethoxy-2-oxoethyl)thiazol-2-yl)hydrazineylidene)-Propanoic Acid]",0.76,Non-irritant,3.9 µg/mL,15.6 µg/mL,31.3 µg/mL,125 µg/mL,7.8 µg/mL,125 µg/mL,15.6 µg/mL,15.6 µg/mL,"cytotoxic effects on the Caco-2 cell line (Caco-2 cells [4]): no cytotoxic effects; viability at 4 h, 10 µg/mL ([5]; Caco-2, 10 µg/mL): 100%; viability at 4 h, 25 µg/mL ([5]; Caco-2, 25 µg/mL): 88%; viability at 4 h, 50 µg/mL ([5]; Caco-2, 50 µg/mL): 86%; solubility at 24 h ([6]; aqueous buffer, buffer pH 4.5, 37 °C): 1.01 ± 0.01 mg/mL; solubility at 24 h ([6]; aqueous buffer, buffer pH 6.8, 37 °C): 2.76 ± 0.09 mg/mL; solubility at 24 h ([6]; simulated gastric fluid, buffer pH 2.0, 37 °C): 0.67 ± 0.001 mg/mL; maximum daily dose borderline for high solubility classification (BCS, dose/S0 ratio less than 250) ([6]; extrapolated from lowest solubility (pH 2.0)): 168 mg; permeability characterization (BCS) (Caco-2 cells [7]): high permeability compound; Papp A→B at 180 min, 10 µg/mL ([8]; apical−basolateral, 10 µg/mL, apical pH 6.8, basolateral pH 7.4, n = 3): 23.1 ± 9.69 ×10⁻⁶ cm/s; Papp B→A at 180 min, 10 µg/mL ([8]; basolateral−apical, 10 µg/mL, n = 3): 17.7 ± 7.19 ×10⁻⁶ cm/s; efflux ratio at 180 min, 10 µg/mL ([8]; read-out: Ratio Efflux Papp B-A/Papp A-B): 0.76"
"CC[C@H](C)C[C@H](C)CCCCCCCCC(=O)N[C@H]1C[C@@H](O)[C@@H](NCCN)NC(=O)[C@@H]2[C@@H](O)CCN2C(=O)[C@H]([C@H](O)CCN)NC(=O)[C@H]([C@H](O)[C@@H](O)c2ccc(O)cc2)NC(=O)[C@@H]2C[C@@H](O)CN2C(=O)[C@H]([C@@H](C)O)NC1=O [Caspofungin, caspofungine]",,,,,,,,,,,Minimal Inhibitory Concentration (MIC) C. auris [3]: 0.05 µg/mL
"CCC(C)n1ncn(-c2ccc(N3CCN(c4ccc(OCC5COC(Cn6cncn6)(c6ccc(Cl)cc6Cl)O5)cc4)CC3)cc2)c1=O (stereo not drawn) [Itraconazole, itraconazole, reference compound]",,,,,,,,,,0.5 µg/mL,
